Here are results for ten compounds from ChEMBL document CHEMBL2401614, “Synthesis of artemisinin dimers using the Ugi reaction and their in vitro efficacy on breast cancer cells” (Bioorg Med Chem Lett, 2013).

Where only a bound is given, the exact number is not on record here.

Usually IC50 stands for the midpoint of a concentration-inhibition curve. The low end stands for inhibition by little substance, the high end for a need for much substance.

The subject of assay [1] is MCF-10A. The experiment in a line: Cytotoxicity against human MCF10A cells after 48 hrs by MTT assay. It is filed as cell-based. For orientation: Tetrazolium dyes change colour on reduction, which living cells bring about.
The next assay concerns MDA-MB-231. In words: Cytotoxicity against human MDA-MB-231 cells after 48 hrs by MTT assay. The class given is functional, cell-based. The following applies: MDA-MB-231, 48 h.
The test system of assay [2] is BT-474. In words: Cytotoxicity against human BT474 cells after 48 hrs by MTT assay. The class given is functional, cell-based. Conditions: BT-474, 48 h.
In assay [3] the test system is MCF-10A. The experiment in a line: Selectivity index, ratio of IC50 for human MCF10A cells to IC50 for human BT474 cells. The class given is functional.
Assay [4] concerns MCF-10A. The experiment in a line: Selectivity index, ratio of IC50 for human MCF10A cells to IC50 for human MDA-MB-231 cells. The class given is functional.
Assay [5] is described as follows: Cytotoxicity against human NCI60 cells relative to artesunate. It is filed as functional.
Assay [6] relates to BT-474. In words: Ratio of artemisinin dimer succinate IC50 to compound IC50 for human BT474 cells. It is filed as functional.

As for `COC(=O)CNC(=O)C(CC[C@H]1O[C@@H]2O[C@@]3(C)CC[C@H]4[C@H](C)CC[C@@H]([C@H]1C)[C@@]24OO3)N(CCC[C@H]1O[C@@H]2O[C@@]3(C)CC[C@H]4[C@H](C)CC[C@@H]([C@H]1C)[C@@]24OO3)C(=O)c1cnccn1` (mixture of isomers), the IC50 is 25 µM in the assay on MCF-10A [1], 26 µM with MDA-MB-231 and 1.7 µM in the assay with BT-474 [2]. Besides, the “Ratio IC50” value in the assay with MCF-10A [3] is listed as 15; in the assay with MCF-10A [4] it was 0.96.
For the compound `COC(=O)CNC(=O)C(CC[C@H]1O[C@@H]2O[C@@]3(C)CC[C@H]4[C@H](C)CC[C@@H]([C@H]1C)[C@@]24OO3)N(CCC[C@H]1O[C@@H]2O[C@@]3(C)CC[C@H]4[C@H](C)CC[C@@H]([C@H]1C)[C@@]24OO3)C(=O)c1ccc(N(C)C)cc1` (mixture of isomers), the IC50 in the assay on MCF-10A [1] stood at 15 µM; in the assay with MDA-MB-231, 12 µM; in the assay with BT-474 [2], 0.88 µM. For the same compound, the results for the “Ratio IC50” value with MCF-10A [3] and in the assay with MCF-10A [4] were 17 and 1.3, respectively.
The matching figures for `C[C@H]1[C@H](OC(=O)CCC(=O)O)O[C@@H]2O[C@@]3(C)CC[C@H]4[C@H](C)CC[C@@H]1[C@@]24OO3` [ARTESUNATE]: 21 µM, 46 µM, 7.8 µM, 2.7 and 0.46.
Turning to `COC(=O)CNC(=O)C(CC[C@H]1O[C@@H]2O[C@@]3(C)CC[C@H]4[C@H](C)CC[C@@H]([C@H]1C)[C@@]24OO3)N(C(=O)c1ccccc1)C(C)C` (stereo not given in full), the IC50 with MCF-10A [1], with MDA-MB-231 and in the assay with BT-474 [2] was greater than 100 µM throughout.
For the compound `COC(=O)CNC(=O)C(CC[C@H]1O[C@@H]2O[C@@]3(C)CC[C@H]4[C@H](C)CC[C@@H]([C@H]1C)[C@@]24OO3)N(CCC[C@H]1O[C@@H]2O[C@@]3(C)CC[C@H]4[C@H](C)CC[C@@H]([C@H]1C)[C@@]24OO3)C(=O)C(F)(F)F` (mixture of isomers), the IC50 was found to be 4.6 µM with MCF-10A [1], 19 µM in the assay with MDA-MB-231 and 6.6 µM in the assay on BT-474 [2]. Moreover, the “Ratio IC50” value with MCF-10A [3] was 0.7; with MCF-10A [4], 0.24.
In the case of `C[C@H]1[C@@H](CC(COC(=O)CCC(=O)O)C[C@H]2O[C@@H]3O[C@@]4(C)CC[C@H]5[C@H](C)CC[C@@H]([C@H]2C)[C@@]35OO4)O[C@@H]2O[C@@]3(C)CC[C@H]4[C@H](C)CC[C@@H]1[C@@]24OO3` (stereo not given in full), the 50% inhibitory concentration (IC50) turned out to be 21 µM with MCF-10A [1], 0.24 µM with MDA-MB-231 and 0.1 µM in the assay with BT-474 [2]. Also, the entries for the “Ratio IC50” value with MCF-10A [3] and in the assay with MCF-10A [4] were 210 and 88, respectively. The “fold change (FC)” value in assay [5] is “<=500”.
As to `COC(=O)CNC(=O)C(CC[C@H]1O[C@@H]2O[C@@]3(C)CC[C@H]4[C@H](C)CC[C@@H]([C@H]1C)[C@@]24OO3)N(CCC[C@H]1O[C@@H]2O[C@@]3(C)CC[C@H]4[C@H](C)CC[C@@H]([C@H]1C)[C@@]24OO3)C(=O)c1cccc(OC)c1OC` (mixture of isomers), the IC50 came out at 5.7 µM in the assay with MCF-10A [1], 12 µM in the assay with MDA-MB-231 and 5.8 µM with BT-474 [2]. In addition, the figures for the “Ratio IC50” value with MCF-10A [3] and in the assay on MCF-10A [4] were 0.98 and 0.48, respectively.
With `C[C@H]1[C@@H](CCCN(c2c(F)c(F)cc(F)c2F)C(CC[C@H]2O[C@@H]3O[C@@]4(C)CC[C@H]5[C@H](C)CC[C@@H]([C@H]2C)[C@@]35OO4)C(=O)NCC(=O)O)O[C@@H]2O[C@@]3(C)CC[C@H]4[C@H](C)CC[C@@H]1[C@@]24OO3` (stereo not given in full), the “Ratio IC50” value in the assay on BT-474 [6] is listed as 8; in the assay on MCF-10A [3], 8200; in the assay on MCF-10A [4], 43. Moreover, the values for the IC50 with MCF-10A [1], in the assay on MDA-MB-231 and in the assay with BT-474 [2] were 98 µM, 2.3 µM and 0.012 µM, respectively.
Take `COC(=O)CNC(=O)C(CC[C@H]1O[C@@H]2O[C@@]3(C)CC[C@H]4[C@H](C)CC[C@@H]([C@H]1C)[C@@]24OO3)N(CCC[C@H]1O[C@@H]2O[C@@]3(C)CC[C@H]4[C@H](C)CC[C@@H]([C@H]1C)[C@@]24OO3)C(=O)c1ccccc1` (mixture of isomers): the IC50 in the assay with MCF-10A [1] was 5 µM; in the assay on MDA-MB-231 it was 11 µM; with BT-474 [2], 0.79 µM. Moreover, the “Ratio IC50” value in the assay on MCF-10A [3] stood at 6.3; in the assay with MCF-10A [4] it was 0.45.
For `COC(=O)CNC(=O)C(CC[C@H]1O[C@@H]2O[C@@]3(C)CC[C@H]4[C@H](C)CC[C@@H]([C@H]1C)[C@@]24OO3)N(CCC[C@H]1O[C@@H]2O[C@@]3(C)CC[C@H]4[C@H](C)CC[C@@H]([C@H]1C)[C@@]24OO3)c1ccc([N+](=O)[O-])cc1` (mixture of isomers), the 50% inhibitory concentration (IC50) was found to be 47 µM in the assay on MCF-10A [1], 1.2 µM in the assay on MDA-MB-231 and 0.096 µM in the assay with BT-474 [2]. In addition, the “Ratio IC50” value with MCF-10A [3] is recorded as 490; in the assay on MCF-10A [4] it was 39.
